US6673937B2, “Syntheses and methods of use of new antimitotic agents” (The University of Pittsburgh, priority 2000, dated 2004)
pIC50, pKi: −log10 of the molar value. Like-named read-outs stand apart in the source and are kept apart here. Blank lines part the entries; values can stand above or below the compound they belong to.

Assays:
Trx-1/TrxR [1] = molecular target: T1, Trx-1/TrxR (Homo sapiens, UniProt P10599+Q16881); assay: Trx-1/TrxR-dependent insulin reducing assay; type: biochemical; conditions: calculated from 5 concentrations (0.1 to 50 μM)
T1 construct: Thioredoxin reductase was purified from human placenta as previously described; made in house
T1 sequence (P10599 1-105): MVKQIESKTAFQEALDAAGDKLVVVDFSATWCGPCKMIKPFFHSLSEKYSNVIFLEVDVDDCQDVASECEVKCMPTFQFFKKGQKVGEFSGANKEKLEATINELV
T1 sequence (Q16881 1-499 isoform Q16881-5): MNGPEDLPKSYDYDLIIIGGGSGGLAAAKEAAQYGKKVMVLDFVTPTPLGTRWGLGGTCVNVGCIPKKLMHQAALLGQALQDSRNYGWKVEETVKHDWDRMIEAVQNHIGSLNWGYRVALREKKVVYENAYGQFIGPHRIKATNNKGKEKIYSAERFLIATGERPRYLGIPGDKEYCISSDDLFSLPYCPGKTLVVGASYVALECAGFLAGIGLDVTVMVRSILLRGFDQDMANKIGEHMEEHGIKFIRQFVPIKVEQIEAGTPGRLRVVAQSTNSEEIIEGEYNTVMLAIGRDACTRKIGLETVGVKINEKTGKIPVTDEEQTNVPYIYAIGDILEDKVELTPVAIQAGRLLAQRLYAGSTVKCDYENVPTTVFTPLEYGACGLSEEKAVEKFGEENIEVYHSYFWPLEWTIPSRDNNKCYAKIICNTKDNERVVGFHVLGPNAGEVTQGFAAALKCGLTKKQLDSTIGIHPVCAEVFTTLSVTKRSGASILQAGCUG
Protocol: Thioredoxin reductase was purified from human placenta as previously described (Oblong, J.E.; Gasdaska, P.Y.; Sherrill, K.; Powis,G. Biochemistry 1993, 32, 7271) and recombinant human Trx-1 was prepared as previously described (Gasdaska, P.Y.; Oblong, J.E.; Cotgreave, I.A.; Powis,G. Biochem.Biophys.Acta 1994 ,1218 ,292). TrxR and Trx-1/TrxR activities were measured spectrophotometrically using previously published microtiter plate colorimetric assays, based on the increase in absorbance at 405 nm which occurs as dithionitrobenzoic acid (DTNB) is reduced by the enzyme-mediated transfer of reducing equivalents from NADPH (Gasdaska et al., Biochem.Biophys.Acta 1994 ,1218,292). Trx-1/TrxR-dependent insulin reducing activity was measured in an incubation with a final volume of 60 μL containing 100 mM HEPES buffer, pH 7.2,5 mM EDTA (HE buffer),1 mM NADPH, […],0.8 μM Trx-1 and 2.5 mg/mL bovine insulin. Incubations were for 30 min at 37 ° C. in flat-bottom 96-well microtiter plates. The reaction was stopped by the addition of 100 μL of 6 M guanidine-HC1, 50 mM Tris, pH 8.0, and 10 mM DTNB, and the absorbance measured to 405 nm. TrxR activity was measured in a final incubation volume of 60 μL containing HE buffer, 10 mM DTNB, 1.0 μM TrxR and 1 mM NADPH. Compounds were diluted in HE buffer and added to the wells as 20 μL aliquots, and TrxR was then added,also as 20 μL aliquots in HE buffer. To start the reaction NADPH and DTNB were added as a 20 μL aliquot in HE buffer and the plate was moved to the plate reader which had been preheated to 37 ° C. The optical density at 405 nm was measured every 10 s and initial reaction rates were measured.

[2] = tested on: mouse embryonic fibroblasts transformed with SV40 large T antigen; assay: Proliferation of SV40 transformed mouse embryonic fibroblasts; type: cell-based; conditions: 10 μM
Protocol: Two compounds, 24 referred to herein as SR-4 and 27 referred to herein as SR-7, were examined in greater detail as to their effects on biological activity. The proliferation of MCF-7, MDA-MB-231 and SV40 transformed mouse embryonic fibroblasts was measured by a previously described colorimetric assay (Wipf P, Jung J-K, Rodriguez S, Lazo JS Synthesis and biological evaluation of Deoxypreussomerin A and Palmarumycin CP 1 and related naphthoquinone spiroketals. Tetrahedron 57:283-296, 2001 and Vogt A, Rice RL, Settineri CE, Yokokawa F, Yokokawa S, Wipf P and Lazo JS (1998) Disruption of insulin-like growth factor-I signaling and down-regulation of Cdc2 by SC-ααδ9, a novel small molecule antisignaling agent identified in a targeted array library. J Pharmacol Exptl Therap 287:806-813.). Briefly, the inventors seeded 4,000-6,000 cells per well in microtiter plates. Cells were allowed to attach overnight and treated with vehicle or compounds for 72 h, after which the medium was replaced with serum free medium containing 0.1% 3-[4,5-dimethylthiazol-2-yl]-2,5-diphenyl tetrazolium bromide. Plates were incubated for 3 hours in the dark and total cell number was determined by spectrophotometrically at 540 nm as previously described (Vogt A, Rice RL, Settineri CE, Yokokawa F, Yokokawa S, Wipf P and Lazo JS (1998) Disruption of insulin-like growth factor-1 signaling and down-regulation of Cdc2 by SC-ααδ9, a novel small molecule antisignaling agent identified in a targeted array library. J Pharmacol Exptl Therap 287:806-813.). […] Cells were maintained in RPMI 1640 medium containing 10% fetal bovine serum and the paclitaxel-resistant cells also contained 17 nM paclitaxel and 10 μM verapamil. […] The number of cells was determined spectrophotometrically at 490 nm minus absorbance at 630 nm after exposure to 3-(4,5-dimethylthiazol-2-yl)-5-(3-carboxymethoxyphenyl)-2-(4-sulfophenyl)-2H-tetrazolium and N-methyldibenzopyurazine methyl sulfate. […]

VHR = VHR (Homo sapiens, UniProt P51452); assay: In vitro inhibition of VHR; type: biochemical; conditions: 30 μM, data not shown
recombinant Cdc25 = assay: In vitro inhibition of recombinant Cdc25; type: biochemical; conditions: 30 μM, data not shown
MDA-MB-231 cells = assay: Antiproliferative assay, MDA-MB-231 cells; type: cell-based, human
Excerpt: MDA-MB-231 cells, which were also derived from an adenocarcinoma of the breast, are less differentiated than the MCF-7 cells and fail to express functional p53 or estrogen receptors. This class of tumor cells contains important targets for new therapies, because loss of estrogen receptor expression is associated with poor patient prognosis. (Osborne, C. K. Breast Cane. Res. Treatm. 1998, 51, 227).
The inventors extrapolated to determine the IC50 for compounds with little cytotoxicity at 30,μM, the highest concentration tested. […] The enhanced sensitivity of MCF-7 to these compounds may be due to the expression of p53 in these cells.
Two compounds, 24 referred to herein as SR-4 and 27 referred to herein as SR-7, were examined in greater detail as to their effects on biological activity. The proliferation of MCF-7, MDA-MB-231 and SV40 transformed mouse embryonic fibroblasts was measured by a previously described colorimetric assay (Wipf P, Jung J-K, Rodriguez S, Lazo JS Synthesis and biological evaluation of Deoxypreussomerin A and Palmarumycin CP 1 and related naphthoquinone spiroketals. Tetrahedron 57:283-296, 2001 and Vogt A, Rice RL, Settineri CE, Yokokawa F, Yokokawa S, Wipf P and Lazo JS (1998) Disruption of insulin-like growth factor-I signaling and down-regulation of Cdc2 by SC-ααδ9, a novel small molecule antisignaling agent identified in a targeted array library. J Pharmacol Exptl Therap 287:806-813.). Briefly, the inventors seeded 4,000-6,000 cells per well in microtiter plates. Cells were allowed to attach overnight and treated with vehicle or compounds for 72 h, after which the medium was replaced with serum free medium containing 0.1% 3-[4,5-dimethylthiazol-2-yl]-2,5-diphenyl tetrazolium bromide. Plates were incubated for 3 hours in the dark and total cell number was determined by spectrophotometrically at 540 nm as previously described (Vogt A, Rice RL, Settineri CE, Yokokawa F, Yokokawa S, Wipf P and Lazo JS (1998) Disruption of insulin-like growth factor-1 signaling and down-regulation of Cdc2 by SC-ααδ9, a novel small molecule antisignaling agent identified in a targeted array library. J Pharmacol Exptl Therap 287:806-813.). […] Cells were maintained in RPMI 1640 medium containing 10% fetal bovine serum and the paclitaxel-resistant cells also contained 17 nM paclitaxel and 10 μM verapamil. Cells were plated (2,000/well) in 96-well plates and allowed to attach and grow for 72 hours (paclitaxel and verapamil were removed from resistant cell medium two weeks prior to this plating). They were then treated with 0.5% DMSO vehicle control or 0.08-10 μM compound. The number of cells was determined spectrophotometrically at 490 nm minus absorbance at 630 nm after exposure to 3-(4,5-dimethylthiazol-2-yl)-5-(3-carboxymethoxyphenyl)-2-(4-sulfophenyl)-2H-tetrazolium and N-methyldibenzopyurazine methyl sulfate.
Because of the potential importance of the tumor suppressor gene p53 and the estrogen receptor in controlling the cellular response to cytotoxic agents, the inventors also examined the sensitivity of MDA-MB-231 cells, which lack functional p53 and estrogen receptors. […] As might be expected, these p53 and estrogen receptor deficient cells were generally less sensitive to both natural products and analogs when compared to MCF-7 cells.

PTPIB = molecular target: T2, PTPIB (Homo sapiens, UniProt P18031); assay: In vitro inhibition of PTPIB; type: biochemical; conditions: 30 μM, data not shown
T2 sequence (P18031 1-435): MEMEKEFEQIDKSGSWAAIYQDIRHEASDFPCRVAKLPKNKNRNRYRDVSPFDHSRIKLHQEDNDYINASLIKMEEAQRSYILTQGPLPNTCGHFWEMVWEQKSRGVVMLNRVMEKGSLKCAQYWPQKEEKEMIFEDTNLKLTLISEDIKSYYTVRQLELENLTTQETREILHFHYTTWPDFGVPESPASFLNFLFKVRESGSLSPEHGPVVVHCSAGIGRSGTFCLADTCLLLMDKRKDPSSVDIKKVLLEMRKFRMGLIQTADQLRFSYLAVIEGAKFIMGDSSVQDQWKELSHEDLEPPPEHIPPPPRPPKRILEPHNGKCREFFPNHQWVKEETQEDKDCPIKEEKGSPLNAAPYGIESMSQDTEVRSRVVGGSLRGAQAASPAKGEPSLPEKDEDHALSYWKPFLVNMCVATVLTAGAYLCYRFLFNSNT

[3] = molecular target: thioredoxin reductases (TrxR); conditions: read-out: K; (thioredoxin reductase inhibition); cited from earlier work
garden cress = conditions: cited from earlier work
60 cell line panel = conditions: read-out: average GI 50; cited from earlier work
Trx-1/TrxR [4] = molecular target: T3, Trx-1/TrxR (Homo sapiens, UniProt P10599+Q16881); conditions: read-out: IC 50 as Trx-1/TrxR inhibitor; cited from earlier work
T3 sequence (P10599 1-105): T1 sequence (P10599 1-105)
T3 sequence (Q16881 151-649 limits assumed): T1 sequence (Q16881 1-499 isoform Q16881-5)

Sequence of VHR (P51452 whole entry, species assumed): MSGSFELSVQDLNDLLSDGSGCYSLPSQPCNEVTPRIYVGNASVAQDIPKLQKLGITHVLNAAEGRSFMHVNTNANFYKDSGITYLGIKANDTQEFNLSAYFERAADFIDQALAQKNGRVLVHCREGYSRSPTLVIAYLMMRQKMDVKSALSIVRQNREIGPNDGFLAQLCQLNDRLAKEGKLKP

pIC50 (Trx-1/TrxR [1]): < 4.30
inhibition of VHR activity (VHR): no inhibition
pIC50 (MDA-MB-231 cells; Homo sapiens, MDA-MB-231, 72 hours, read-out: MDA-MB-231 50% cell growth inhibition): 5.04
inhibition of PTPIB activity (PTPIB): no inhibition
SMILES: CC/C=C/CCOc1cccc2c1C(=O)C=CC21Oc2cccc3cccc(c23)O1 [SR-4, (E)-8-(hex-3-enyloxy)-1-oxo-1,4-dihydronaphthalene-4-spiro-2′-naphto [1″,8″-de][1′,3′] dioxin]
growth inhibition at highest concentration tested [2]: no significant inhibition
inhibition of recombinant Cdc25 activity (recombinant Cdc25): no inhibition
enhanced sensitivity of MDA-MB-231 cells compared to MCF-7 cells (MDA-MB-231 cells): five fold enhanced sensitivity
sensitivity of MDA-MB-231 cells, in words (MDA-MB-231 cells; 72 hours, FIG. 23 Panel B): less active

SMILES: CC(=O)OC[C@H]1O[C@@H]([S-])[C@H](OC(C)=O)[C@@H](OC(C)=O)[C@@H]1OC(C)=O.CCP(CC)CC.[Au+] [auranofin]
pKi [3]: 8.40

SMILES: O=C1C=CC(=O)[C@@]23O[C@@]12C(=O)C(Cl)=CC31Oc2cccc3cccc(c23)O1 [palmarumycin C4]
germination and growth of garden cress (garden cress): completely inhibited germination and growth

SMILES: C[C@H]1CO[C@H]2C3=C(C(=O)C=CC3=O)[C@@H]3OC(=O)[C@H]4CC[C@@H]5[C@H]1CC[C@@]52[C@@H]43 [NSC401005]
GI50 (60 cell line panel): 21.5 µM
pIC50 (Trx-1/TrxR [4]): 6.77

SMILES: O=C1C=CC(=O)C23OC12C(=O)C1OC1C31Oc2cccc3cccc(c23)O1 (stereo not shown) [palmarumycin C9]
germination and growth of garden cress (garden cress): completely inhibited germination and growth
